# Results from patent publication US20100242139A1, “XENOHORMESIS BASED COMPOSITIONS AND METHODS” (President and Fellows of Harvard College, priority 2006, published 2010).
# Columns and labels:
# FGFR1(h) = FGFR1(h) (Homo sapiens, UniProt P11362); assay: kinase panel activity, FGFR1(h); format: biochemical; conditions: compound at 20 μM; vs reference with no compound
# CDK5/p35(h) = CDK5/p35(h) (Homo sapiens, UniProt Q00535); assay: kinase panel activity, CDK5/p35(h); format: biochemical; conditions: compound at 20 μM; vs reference with no compound
# Fgr(h) = Fgr(h) (Homo sapiens, UniProt P09769); assay: kinase panel activity, Fgr(h); format: biochemical; conditions: compound at 20 μM; vs reference with no compound
# CHK1(h) = CHK1(h) (Homo sapiens, UniProt O14757); assay: kinase panel activity, CHK1(h); format: biochemical; conditions: compound at 20 μM; vs reference with no compound
# Sequence of CHK1(h) (O14757 whole entry): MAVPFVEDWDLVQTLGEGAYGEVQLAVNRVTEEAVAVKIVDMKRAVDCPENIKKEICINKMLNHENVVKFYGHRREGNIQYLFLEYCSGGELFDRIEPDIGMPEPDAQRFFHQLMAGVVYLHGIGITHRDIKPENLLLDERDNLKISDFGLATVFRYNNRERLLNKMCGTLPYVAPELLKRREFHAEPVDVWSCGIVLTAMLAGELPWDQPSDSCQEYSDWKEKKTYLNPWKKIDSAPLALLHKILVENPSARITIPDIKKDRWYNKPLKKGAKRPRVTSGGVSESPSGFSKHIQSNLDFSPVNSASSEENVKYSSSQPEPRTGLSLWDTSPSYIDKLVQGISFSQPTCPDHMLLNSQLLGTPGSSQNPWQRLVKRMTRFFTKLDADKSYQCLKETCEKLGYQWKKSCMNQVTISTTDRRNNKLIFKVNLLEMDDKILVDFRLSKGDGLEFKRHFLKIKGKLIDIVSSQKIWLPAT
# TrkB(h) = TrkB(h) (Homo sapiens, UniProt Q16620); assay: kinase panel activity, TrkB(h); format: biochemical; conditions: compound at 20 μM; vs reference with no compound
# TrkA(h) = TrkA(h) (Homo sapiens, UniProt P04629); assay: kinase panel activity, TrkA(h); format: biochemical; conditions: compound at 20 μM; vs reference with no compound
# Met(h) = Met(h) (Homo sapiens, UniProt P08581); assay: kinase panel activity, Met(h); format: biochemical; conditions: compound at 20 μM; vs reference with no compound
# PIk3(h) = PIk3(h) (Homo sapiens, UniProt Q9H4B4); assay: kinase panel activity, PIk3(h); format: biochemical; conditions: compound at 20 μM; vs reference with no compound
# CDK9/cyclin T1(h) = CDK9/cyclin T1(h) (Homo sapiens, UniProt P50750); assay: kinase panel activity, CDK9/cyclin T1(h); format: biochemical; conditions: compound at 20 μM; vs reference with no compound
# DAPK1(h) = DAPK1(h) (Homo sapiens, UniProt P53355); assay: kinase panel activity, DAPK1(h); format: biochemical; conditions: compound at 20 μM; vs reference with no compound
# MSK1(h) = MSK1(h) (Homo sapiens, UniProt O75582); assay: kinase panel activity, MSK1(h); format: biochemical; conditions: compound at 20 μM; vs reference with no compound
# Sequence of MSK1(h) (O75582 whole entry): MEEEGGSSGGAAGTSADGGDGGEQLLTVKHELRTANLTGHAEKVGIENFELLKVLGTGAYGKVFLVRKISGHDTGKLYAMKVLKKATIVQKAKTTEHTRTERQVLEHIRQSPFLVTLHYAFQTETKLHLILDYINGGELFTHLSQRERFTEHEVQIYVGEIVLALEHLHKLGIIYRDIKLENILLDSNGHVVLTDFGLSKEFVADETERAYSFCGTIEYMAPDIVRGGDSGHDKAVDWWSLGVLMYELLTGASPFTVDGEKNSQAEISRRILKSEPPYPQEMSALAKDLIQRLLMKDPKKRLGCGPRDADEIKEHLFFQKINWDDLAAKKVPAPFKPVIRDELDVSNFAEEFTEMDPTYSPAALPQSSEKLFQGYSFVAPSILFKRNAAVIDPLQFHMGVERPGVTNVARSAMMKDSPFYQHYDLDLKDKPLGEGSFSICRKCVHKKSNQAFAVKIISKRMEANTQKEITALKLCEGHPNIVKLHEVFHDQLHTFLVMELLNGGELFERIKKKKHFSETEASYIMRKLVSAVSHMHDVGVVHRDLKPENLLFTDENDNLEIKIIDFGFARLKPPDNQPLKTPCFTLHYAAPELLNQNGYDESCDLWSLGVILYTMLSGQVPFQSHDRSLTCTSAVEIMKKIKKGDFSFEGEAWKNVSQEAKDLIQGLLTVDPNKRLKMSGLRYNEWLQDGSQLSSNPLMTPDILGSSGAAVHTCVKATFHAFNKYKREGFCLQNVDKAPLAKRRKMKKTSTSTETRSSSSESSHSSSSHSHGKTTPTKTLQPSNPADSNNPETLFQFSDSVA
# Rsk1(h) = Rsk1(h) (Homo sapiens, UniProt Q15418); assay: kinase panel activity, Rsk1(h); format: biochemical; conditions: compound at 20 μM; vs reference with no compound
# MST1(h) = MST1(h) (Homo sapiens, UniProt Q13043); assay: kinase panel activity, MST1(h); format: biochemical; conditions: compound at 20 μM; vs reference with no compound
# AMPK(r) = assay: kinase panel activity, AMPK(r); format: biochemical, rat; conditions: compound at 20 μM; vs reference with no compound
# PDGFRα(h) = PDGFRα(h) (Homo sapiens, UniProt P16234); assay: kinase panel activity, PDGFRα(h); format: biochemical; conditions: compound at 20 μM; vs reference with no compound
# Ros(h) = Ros(h) (Homo sapiens, UniProt P08922); assay: kinase panel activity, Ros(h); format: biochemical; conditions: compound at 20 μM; vs reference with no compound
# Sequence of Ros(h) (P08922 28-2347): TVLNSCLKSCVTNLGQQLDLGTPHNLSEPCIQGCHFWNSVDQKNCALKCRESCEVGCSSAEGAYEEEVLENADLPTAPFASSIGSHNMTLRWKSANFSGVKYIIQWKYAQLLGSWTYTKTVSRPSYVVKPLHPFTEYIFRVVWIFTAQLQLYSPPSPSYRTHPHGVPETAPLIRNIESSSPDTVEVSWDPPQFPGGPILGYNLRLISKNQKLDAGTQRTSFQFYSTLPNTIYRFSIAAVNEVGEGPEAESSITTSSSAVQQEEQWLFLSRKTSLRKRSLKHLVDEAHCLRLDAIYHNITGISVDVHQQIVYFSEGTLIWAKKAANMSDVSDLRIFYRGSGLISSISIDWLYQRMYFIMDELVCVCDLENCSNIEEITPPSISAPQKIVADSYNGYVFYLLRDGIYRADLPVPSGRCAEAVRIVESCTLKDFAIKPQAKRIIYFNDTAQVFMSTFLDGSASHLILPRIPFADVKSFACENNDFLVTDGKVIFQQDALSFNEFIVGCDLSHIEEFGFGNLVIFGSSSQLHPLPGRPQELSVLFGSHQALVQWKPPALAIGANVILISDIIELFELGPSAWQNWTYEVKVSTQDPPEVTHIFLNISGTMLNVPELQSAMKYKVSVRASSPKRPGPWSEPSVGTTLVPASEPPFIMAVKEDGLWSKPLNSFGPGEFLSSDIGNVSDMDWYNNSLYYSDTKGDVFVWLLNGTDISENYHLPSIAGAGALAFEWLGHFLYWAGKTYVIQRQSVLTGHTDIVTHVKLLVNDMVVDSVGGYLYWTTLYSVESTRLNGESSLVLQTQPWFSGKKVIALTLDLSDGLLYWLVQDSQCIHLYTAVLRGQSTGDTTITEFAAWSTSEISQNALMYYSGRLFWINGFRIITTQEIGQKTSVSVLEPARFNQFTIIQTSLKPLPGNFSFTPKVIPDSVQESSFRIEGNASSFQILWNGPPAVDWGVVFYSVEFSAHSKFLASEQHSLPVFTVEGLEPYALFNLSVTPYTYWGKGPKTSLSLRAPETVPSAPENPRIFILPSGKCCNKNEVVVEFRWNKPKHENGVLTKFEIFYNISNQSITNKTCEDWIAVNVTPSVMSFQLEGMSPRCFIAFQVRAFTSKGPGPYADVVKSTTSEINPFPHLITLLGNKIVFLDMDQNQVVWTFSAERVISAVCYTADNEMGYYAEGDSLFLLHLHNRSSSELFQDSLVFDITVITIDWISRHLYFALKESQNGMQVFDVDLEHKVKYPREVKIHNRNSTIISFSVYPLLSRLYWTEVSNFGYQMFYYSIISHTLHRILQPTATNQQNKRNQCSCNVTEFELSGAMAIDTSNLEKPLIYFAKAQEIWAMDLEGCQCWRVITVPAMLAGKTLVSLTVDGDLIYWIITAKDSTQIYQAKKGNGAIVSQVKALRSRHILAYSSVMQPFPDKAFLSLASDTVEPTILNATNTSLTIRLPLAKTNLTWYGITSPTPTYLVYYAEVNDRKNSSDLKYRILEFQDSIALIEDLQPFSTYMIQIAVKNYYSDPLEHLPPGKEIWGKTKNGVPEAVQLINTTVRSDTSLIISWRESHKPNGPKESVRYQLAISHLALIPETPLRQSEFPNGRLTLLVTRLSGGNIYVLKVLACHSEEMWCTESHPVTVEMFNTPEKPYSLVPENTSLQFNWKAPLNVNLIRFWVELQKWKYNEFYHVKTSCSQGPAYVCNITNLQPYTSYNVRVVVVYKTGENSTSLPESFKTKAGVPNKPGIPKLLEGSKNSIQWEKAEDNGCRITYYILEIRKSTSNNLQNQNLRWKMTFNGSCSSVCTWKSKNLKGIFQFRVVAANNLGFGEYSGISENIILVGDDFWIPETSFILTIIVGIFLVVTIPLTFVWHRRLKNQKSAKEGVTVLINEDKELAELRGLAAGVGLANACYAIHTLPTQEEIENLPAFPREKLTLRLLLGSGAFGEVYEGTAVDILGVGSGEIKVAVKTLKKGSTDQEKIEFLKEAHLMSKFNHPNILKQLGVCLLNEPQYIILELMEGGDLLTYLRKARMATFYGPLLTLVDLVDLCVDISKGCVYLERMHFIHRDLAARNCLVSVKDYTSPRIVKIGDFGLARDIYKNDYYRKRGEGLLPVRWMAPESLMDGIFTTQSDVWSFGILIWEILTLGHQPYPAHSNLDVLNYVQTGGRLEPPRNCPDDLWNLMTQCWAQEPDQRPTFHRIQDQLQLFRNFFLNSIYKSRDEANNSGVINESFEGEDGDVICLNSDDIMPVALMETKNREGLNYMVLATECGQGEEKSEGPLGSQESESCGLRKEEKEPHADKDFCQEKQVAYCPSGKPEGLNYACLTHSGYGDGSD
# IGF-1R(h) = IGF-1R(h) (Homo sapiens, UniProt P08069); assay: kinase panel activity, IGF-1R(h); format: biochemical; conditions: compound at 20 μM; vs reference with no compound
# PAK4(h) = PAK4(h) (Homo sapiens, UniProt O96013); assay: kinase panel activity, PAK4(h); format: biochemical; conditions: compound at 20 μM; vs reference with no compound
# PKA(h) = PKA(h) (Homo sapiens, UniProt P17612); assay: kinase panel activity, PKA(h); format: biochemical; conditions: compound at 20 μM; vs reference with no compound
# CDK6/cyclinD3(h) = CDK6/cyclinD3(h) (Homo sapiens, UniProt Q00534); assay: kinase panel activity, CDK6/cyclinD3(h); format: biochemical; conditions: compound at 20 μM; vs reference with no compound
# Fms(h) = Fms(h) (Homo sapiens, UniProt P07333); assay: kinase panel activity, Fms(h); format: biochemical; conditions: compound at 20 μM; vs reference with no compound
# SGK(h) = SGK(h) (Homo sapiens, UniProt O00141); assay: kinase panel activity, SGK(h); format: biochemical; conditions: compound at 20 μM; vs reference with no compound
# CDK5/p25(h) = CDK5/p25(h) (Homo sapiens, UniProt Q00535); assay: kinase panel activity, CDK5/p25(h); format: biochemical; conditions: compound at 20 μM; vs reference with no compound
# IRAK1(h) = IRAK1(h) (Homo sapiens, UniProt P51617); assay: kinase panel activity, IRAK1(h); format: biochemical; conditions: compound at 20 μM; vs reference with no compound
# SAPK2a(h) = SAPK2a(h) (Homo sapiens, UniProt Q16539); assay: kinase panel activity, SAPK2a(h); format: biochemical; conditions: compound at 20 μM; vs reference with no compound
# CDK2/cyclinE(h) = CDK2/cyclinE(h) (Homo sapiens, UniProt P24941); assay: kinase panel activity, CDK2/cyclinE(h); format: biochemical; conditions: compound at 20 μM; vs reference with no compound
# EGFR(h) = EGFR(h) (Homo sapiens, UniProt P00533); assay: kinase panel activity, EGFR(h); format: biochemical; conditions: compound at 20 μM; vs reference with no compound
# MEK1(h) = MEK1(h) (Homo sapiens, UniProt Q02750); assay: kinase panel activity, MEK1(h); format: biochemical; conditions: compound at 20 μM; vs reference with no compound
# SAPK4(h) = SAPK4(h) (Homo sapiens, UniProt O15264); assay: kinase panel activity, SAPK4(h); format: biochemical; conditions: compound at 20 μM; vs reference with no compound
# LIMK1(h) = LIMK1(h) (Homo sapiens, UniProt P53667); assay: kinase panel activity, LIMK1(h); format: biochemical; conditions: compound at 20 μM; vs reference with no compound
# Sequence of LIMK1(h) (P53667 whole entry): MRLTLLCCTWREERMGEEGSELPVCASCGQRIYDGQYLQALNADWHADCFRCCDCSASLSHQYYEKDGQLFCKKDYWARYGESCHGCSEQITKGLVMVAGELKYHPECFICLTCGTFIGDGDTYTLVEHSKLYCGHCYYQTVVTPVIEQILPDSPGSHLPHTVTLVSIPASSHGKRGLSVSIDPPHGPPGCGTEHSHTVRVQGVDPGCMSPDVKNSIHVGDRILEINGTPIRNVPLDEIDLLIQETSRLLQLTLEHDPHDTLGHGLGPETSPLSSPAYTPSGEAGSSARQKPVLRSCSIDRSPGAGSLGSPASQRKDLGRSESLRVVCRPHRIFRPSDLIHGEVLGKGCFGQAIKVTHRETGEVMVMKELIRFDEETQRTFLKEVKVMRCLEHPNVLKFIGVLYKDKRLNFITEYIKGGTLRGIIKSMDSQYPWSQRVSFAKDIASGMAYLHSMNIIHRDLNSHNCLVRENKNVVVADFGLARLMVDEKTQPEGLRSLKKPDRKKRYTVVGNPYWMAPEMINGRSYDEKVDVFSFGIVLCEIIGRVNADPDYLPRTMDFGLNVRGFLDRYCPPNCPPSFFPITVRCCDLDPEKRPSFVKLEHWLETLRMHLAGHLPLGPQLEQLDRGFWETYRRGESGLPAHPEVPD
# MAPK1(h) = MAPK1(h) (Homo sapiens, UniProt P27361); assay: kinase panel activity, MAPK1(h); format: biochemical; conditions: compound at 20 μM; vs reference with no compound
# EphB2(h) = EphB2(h) (Homo sapiens, UniProt P29323); assay: kinase panel activity, EphB2(h); format: biochemical; conditions: compound at 20 μM; vs reference with no compound
# CSK(h) = CSK(h) (Homo sapiens, UniProt P41240); assay: kinase panel activity, CSK(h); format: biochemical; conditions: compound at 20 μM; vs reference with no compound
# Flt1(h) = Flt1(h) (Homo sapiens, UniProt P17948); assay: kinase panel activity, Flt1(h); format: biochemical; conditions: compound at 20 μM; vs reference with no compound
# IR(h) = IR(h) (Homo sapiens, UniProt P06213); assay: kinase panel activity, IR(h); format: biochemical; conditions: compound at 20 μM; vs reference with no compound
# TAK1(h) = TAK1(h) (Homo sapiens, UniProt O43318); assay: kinase panel activity, TAK1(h); format: biochemical; conditions: compound at 20 μM; vs reference with no compound
# PKBβ(h) = PKBβ(h) (Homo sapiens, UniProt P31751); assay: kinase panel activity, PKBβ(h); format: biochemical
# CDK7/cyclinH/MAT1(h) = CDK7/cyclinH/MAT1(h) (Homo sapiens, UniProt P50613); assay: kinase panel activity, CDK7/cyclinH/MAT1(h); format: biochemical; conditions: compound at 20 μM; vs reference with no compound
# MSK2(h) = MSK2(h) (Homo sapiens, UniProt O75676); assay: kinase panel activity, MSK2(h); format: biochemical; conditions: compound at 20 μM; vs reference with no compound
# CHK2(h) = CHK2(h) (Homo sapiens, UniProt O96017); assay: kinase panel activity, CHK2(h); format: biochemical; conditions: compound at 20 μM; vs reference with no compound
# Sequence of FGFR1(h) (P11362 22-822): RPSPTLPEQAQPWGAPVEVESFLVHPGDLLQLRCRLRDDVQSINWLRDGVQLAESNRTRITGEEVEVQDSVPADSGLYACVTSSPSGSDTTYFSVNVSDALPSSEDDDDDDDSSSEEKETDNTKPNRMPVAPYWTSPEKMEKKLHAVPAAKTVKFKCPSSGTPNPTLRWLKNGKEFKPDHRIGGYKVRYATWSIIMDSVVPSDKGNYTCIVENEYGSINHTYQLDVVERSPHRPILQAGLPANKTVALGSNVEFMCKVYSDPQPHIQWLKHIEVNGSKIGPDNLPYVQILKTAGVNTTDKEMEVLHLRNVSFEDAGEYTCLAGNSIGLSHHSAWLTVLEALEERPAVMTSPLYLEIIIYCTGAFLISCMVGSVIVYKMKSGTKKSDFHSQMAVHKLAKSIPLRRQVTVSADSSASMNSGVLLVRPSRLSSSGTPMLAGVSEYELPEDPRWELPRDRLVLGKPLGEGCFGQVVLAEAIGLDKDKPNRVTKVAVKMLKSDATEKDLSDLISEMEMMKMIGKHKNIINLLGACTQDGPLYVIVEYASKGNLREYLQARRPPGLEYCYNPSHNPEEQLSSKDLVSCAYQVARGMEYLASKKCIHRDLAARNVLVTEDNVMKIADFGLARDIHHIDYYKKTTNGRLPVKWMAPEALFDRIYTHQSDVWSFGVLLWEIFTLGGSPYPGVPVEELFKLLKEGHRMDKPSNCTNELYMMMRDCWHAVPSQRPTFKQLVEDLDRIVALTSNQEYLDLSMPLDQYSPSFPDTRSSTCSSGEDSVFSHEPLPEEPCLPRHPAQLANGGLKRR
Compound,percent activity of FGFR1(h) (FGFR1(h)),percent activity of CDK5/p35(h) (CDK5/p35(h)),percent activity of Fgr(h) (Fgr(h)),percent activity of CHK1(h) (CHK1(h)),percent activity of TrkB(h) (TrkB(h)),percent activity of TrkA(h) (TrkA(h)),percent activity of Met(h) (Met(h)),percent activity of PIk3(h) (PIk3(h)),percent activity of CDK9/cyclin T1(h) (CDK9/cyclin T1(h)),percent activity of DAPK1(h) (DAPK1(h)),percent activity of MSK1(h) (MSK1(h)),percent activity of Rsk1(h) (Rsk1(h)),percent activity of MST1(h) (MST1(h)),percent activity of AMPK(r) (AMPK(r)),percent activity of PDGFRα(h) (PDGFRα(h)),percent activity of Ros(h) (Ros(h)),percent activity of IGF-1R(h) (IGF-1R(h)),percent activity of PAK4(h) (PAK4(h)),percent activity of PKA(h) (PKA(h)),percent activity of CDK6/cyclinD3(h) (CDK6/cyclinD3(h)),further results
"O=C(O)[C@H]1O[C@@H](Oc2ccc(/C=C/c3cc(O)cc(O)c3)cc2)[C@H](O)[C@@H](O)[C@@H]1O [Res 4′-Gluc, resveratrol-4-glucuronide]",45%,104%,67%,117%,100%,32%,122%,86%,105%,107%,110%,104%,106%,43%,114%,105%,87%,107%,105%,95%,"percent activity of Fms(h) (Fms(h)): 94%; percent activity of SGK(h) (SGK(h)): 48%; percent activity of CDK5/p25(h) (CDK5/p25(h)): 91%; percent activity of IRAK1(h) (IRAK1(h)): 100%; percent activity of SAPK2a(h) (SAPK2a(h)): 107%; percent activity of CDK2/cyclinE(h) (CDK2/cyclinE(h)): 106%; percent activity of EGFR(h) (EGFR(h)): 106%; percent activity of MEK1(h) (MEK1(h)): 120%; percent activity of SAPK4(h) (SAPK4(h)): 104%; percent activity of LIMK1(h) (LIMK1(h)): 91%; percent activity of MAPK1(h) (MAPK1(h)): 106%; percent activity of EphB2(h) (EphB2(h)): 109%; percent activity of CSK(h) (CSK(h)): 100%; percent activity of Flt1(h) (Flt1(h)): 76%; percent activity of IR(h) (IR(h)): 80%; percent activity of TAK1(h) (TAK1(h)): 113%; percent activity of PKBβ(h) (PKBβ(h); compound at 20 μM, vs reference with no compound): 94%; percent activity of CDK7/cyclinH/MAT1(h) (CDK7/cyclinH/MAT1(h)): 110%; percent activity of MSK2(h) (MSK2(h)): 94%; percent activity of CHK2(h) (CHK2(h)): 95%"
"Oc1ccc(C=Cc2cc(O)cc(O)c2)cc1 [resveratrol, 3,5,4′-trihydroxystilbene]",58%,77%,78%,95%,98%,31%,114%,95%,70%,71%,58%,70%,75%,39%,114%,102%,75%,103%,100%,55%,percent activity of Fms(h) (Fms(h)): 61%; percent activity of SGK(h) (SGK(h)): 86%; percent activity of CDK5/p25(h) (CDK5/p25(h)): 64%; percent activity of IRAK1(h) (IRAK1(h)): 97%; percent activity of SAPK2a(h) (SAPK2a(h)): 100%; percent activity of CDK2/cyclinE(h) (CDK2/cyclinE(h)): 80%; percent activity of EGFR(h) (EGFR(h)): 90%; percent activity of MEK1(h) (MEK1(h)): 110%; percent activity of SAPK4(h) (SAPK4(h)): 92%; percent activity of LIMK1(h) (LIMK1(h)): 84%; percent activity of MAPK1(h) (MAPK1(h)): 94%; percent activity of EphB2(h) (EphB2(h)): 113%; percent activity of CSK(h) (CSK(h)): 94%; percent activity of Flt1(h) (Flt1(h)): 52%; percent activity of IR(h) (IR(h)): 71%; percent activity of TAK1(h) (TAK1(h)): 105%; activity at 20 µM (PKBβ(h); read-out: percent activity of PKBβ(h)): 105%; percent activity of CDK7/cyclinH/MAT1(h) (CDK7/cyclinH/MAT1(h)): 95%; percent activity of MSK2(h) (MSK2(h)): 60%; percent activity of CHK2(h) (CHK2(h)): 59%
